Laboratory results reported in patent US20100137446A1, “NAPHTHALENE COMPOUNDS, A PROCESS FOR THEIR PREPARATION AND PHARMACEUTICAL COMPOSITIONS CONTAINING THEM” (priority 2007, published 2010).

What was measured:
[1] = target: T1, MT2 receptor (Homo sapiens, UniProt P49286); assay: Melatonin MT2 receptor binding study; conditions: 2-[125I]-iodomelatonin radioligand
T1 sequence (P49286 1-362): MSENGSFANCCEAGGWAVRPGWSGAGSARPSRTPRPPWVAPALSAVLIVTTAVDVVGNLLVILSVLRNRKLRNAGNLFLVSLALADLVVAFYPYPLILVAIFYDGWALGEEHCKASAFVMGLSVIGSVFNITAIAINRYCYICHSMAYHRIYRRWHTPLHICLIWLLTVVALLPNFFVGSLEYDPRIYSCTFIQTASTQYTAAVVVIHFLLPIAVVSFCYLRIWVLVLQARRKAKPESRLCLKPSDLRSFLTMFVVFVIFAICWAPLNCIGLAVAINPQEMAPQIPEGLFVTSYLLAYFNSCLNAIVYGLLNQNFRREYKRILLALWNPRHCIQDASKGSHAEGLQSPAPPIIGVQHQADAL
Method: (§1) The MT1 or MT2 receptor binding experiments are carried out using 2-[^125I]-iodomelatonin as reference radioligand. The radioactivity retained is determined using a liquid scintillation counter.
(§2) Competitive binding experiments are then carried out in triplicate using the various test compounds. A range of different concentrations is tested for each compound. The results enable the binding affinities of the compounds tested (Ki) to be determined.

[2] = target: T2, human 5-HT2C receptor (Homo sapiens, UniProt P28335); assay: Serotoninergic 5-HT2C receptor binding study; conditions: CHO cell membranes, [3H]-mesulergine (1 nM)
T2 construct: expressed in transfected cells
T2 sequence (P28335 33-458): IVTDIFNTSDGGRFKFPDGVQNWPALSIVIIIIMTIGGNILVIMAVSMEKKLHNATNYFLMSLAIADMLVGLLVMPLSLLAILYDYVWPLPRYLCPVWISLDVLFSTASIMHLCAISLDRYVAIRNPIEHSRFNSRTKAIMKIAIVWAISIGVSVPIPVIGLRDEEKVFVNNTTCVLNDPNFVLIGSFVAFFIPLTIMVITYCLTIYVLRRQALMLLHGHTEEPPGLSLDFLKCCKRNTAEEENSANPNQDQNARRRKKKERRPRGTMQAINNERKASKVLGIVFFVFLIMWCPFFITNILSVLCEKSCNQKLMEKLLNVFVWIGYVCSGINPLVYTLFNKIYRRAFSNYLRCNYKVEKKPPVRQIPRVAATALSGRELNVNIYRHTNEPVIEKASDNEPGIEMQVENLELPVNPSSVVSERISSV
Method: The affinity of the compounds for the human 5-HT2C receptor is evaluated on membrane preparations from CHO cells stably expressing that receptor.
Incubation is carried out in 50 mM TRIS buffer, pH 7.4, containing 10 mM MgCl2 and
0.1% BSA, in the presence of [^3H]-mesulergine (1 nM) and 25 fmol/ml of receptor. Non-specific binding is determined in the presence of 10 μM mianserin.
The reaction is stopped by the addition of 50 mM TRIS buffer, pH 7.4, followed by a filtration step and 3 successive rinses: the radioactivity bound to the membranes remaining on the filters (GF/B pretreated with 0.1% PEI) is determined by liquid scintillation counting.

[3] = target: MT1 receptor (Homo sapiens, UniProt P48039); assay: Melatonin MT1 receptor binding study; conditions: 2-[125I]-iodomelatonin radioligand
MT1 receptor, sequence (P48039 whole entry): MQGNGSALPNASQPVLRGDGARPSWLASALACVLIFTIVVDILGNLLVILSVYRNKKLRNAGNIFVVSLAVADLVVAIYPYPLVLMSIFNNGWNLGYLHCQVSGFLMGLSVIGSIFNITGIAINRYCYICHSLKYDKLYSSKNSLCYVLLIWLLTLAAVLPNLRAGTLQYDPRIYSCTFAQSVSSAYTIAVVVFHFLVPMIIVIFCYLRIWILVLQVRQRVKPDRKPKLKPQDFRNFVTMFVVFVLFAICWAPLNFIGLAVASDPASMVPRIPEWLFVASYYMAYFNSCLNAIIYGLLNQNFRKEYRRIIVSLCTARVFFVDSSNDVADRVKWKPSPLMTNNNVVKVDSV
Method: as §1, §2

Compound `COc1ccc2cccc(C(CF)CNC(C)=O)c2c1` (stereo not drawn) [Example 5, N-[3-Fluoro-2-(7-methoxy-1-naphthyl)propyl]acetamide] has a Ki [1] of 0.2 nM, a Ki [2] of 6000 nM and a Ki [3] of 0.1 nM.
